IC50 data for five molecules are collected here from patent publication US8003654B2, “N-glycinsulfonamide derivatives and uses as orexin receptor antagonists” (Actelion Pharmaceuticals Ltd., priority 2006, dated 2011).

One assay addresses T1, human orexin-1 receptor (Homo sapiens, UniProt O43613).
T1 construct: expressed in transfected cells; host or cells: CHO cells (G418 selection)
T1 sequence (O43613 1-425): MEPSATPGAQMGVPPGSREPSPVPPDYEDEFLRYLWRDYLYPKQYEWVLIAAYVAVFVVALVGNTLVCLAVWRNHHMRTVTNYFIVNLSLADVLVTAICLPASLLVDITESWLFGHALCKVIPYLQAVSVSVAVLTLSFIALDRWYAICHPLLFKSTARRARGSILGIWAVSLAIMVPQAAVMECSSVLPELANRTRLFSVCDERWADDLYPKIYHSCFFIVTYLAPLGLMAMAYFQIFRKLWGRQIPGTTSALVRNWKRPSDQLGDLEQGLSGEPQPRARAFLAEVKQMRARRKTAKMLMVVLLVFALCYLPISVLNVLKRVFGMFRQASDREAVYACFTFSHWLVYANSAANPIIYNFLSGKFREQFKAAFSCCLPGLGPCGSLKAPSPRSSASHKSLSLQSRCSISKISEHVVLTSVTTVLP
Put plainly: Intracellular calcium measurements (FLIPR), antagonism of 10 nM orexin-A in CHO cells expressing the human orexin-1 receptor. It is filed as cell-based. The note with it: CHO cells expressing human orexin-1 receptor, agonist 10 nM orexin-A, read-out: OX1 IC50. As to the method: (§1) The orexin receptor antagonistic activity of the compounds of formula (I) is determined in accordance with the following experimental method.
(§2) • Intracellular Calcium Measurements:
(§3) Chinese hamster ovary (CHO) cells expressing the human orexin-1 receptor and the human orexin-2 receptor, respectively, are grown in culture medium (Ham F-12 with L-Glutamine) containing 300 μg/ml G418, 100 U/ml penicillin, 100 μg/ml streptomycin and 10% inactivated fetal calf serum (FCS). The cells are seeded at 80,000 cells/well into 96-well black clear bottom sterile plates (Costar) which have been precoated with 1% gelatine in Hanks' Balanced Salt Solution (HBSS). All reagents are from Gibco BRL. The seeded plates are incubated overnight at 37° C. in 5% CO2.
(§4) Human orexin-A as an agonist is prepared as 1 mM stock solution in methanol:water (1:1), diluted in HBSS containing 0.1% bovine serum albumin (BSA) and 2 mM HEPES for use in the assay at a final concentration of 10 nM.
(§5) Antagonists are prepared as 10 mM stock solution in DMSO, then diluted in 96-well plates, first in DMSO, then in HBSS containing 0.1% bovine serum albumin (BSA) and 2 mM HEPES.
(§6) On the day of the assay, 100 μl of loading medium (HBSS containing 1% FCS, 2 mM HEPES, 5 mM probenecid (Sigma) and 3 μM of the fluorescent calcium indicator fluo-3 AM (1 mM stock solution in DMSO with 10% pluronic acid) (Molecular Probes) is added to each well.
(§7) The 96-well plates are incubated for 60 min at 37° C. in 5% CO2. The loading solution is then aspirated and cells are washed 3 times with 200 μl HBSS containing 2.5 mM probenecid, 0.1% BSA, 2 mM HEPES. 100 μl of that same buffer is left in each well.
(§8) Within the Fluorescent Imaging Plate Reader (FLIPR, Molecular Devices), antagonists are added to the plate in a volume of 50 μl, incubated for 20 min and finally 100 μl of agonist is added. Fluorescence is measured for each well at 1 second intervals, and the height of each fluorescence peak is compared to the height of the fluorescence peak induced by 10 nM orexin-A with buffer in place of antagonist. For each antagonist, IC50 value (the concentration of compound needed to inhibit 50% of the agonistic response) is determined. Antagonistic activities of compounds are in the nanomolar range with respect to OX1 and OX2 receptors.
On the technique in general: Calcium flux is commonly read through the fluorescence of an indicator in the cells.

In another assay the target is T2, human orexin-2 receptor (Homo sapiens, UniProt O43614).
T2 construct: expressed in transfected cells; host or cells: CHO cells (G418 selection)
T2 sequence (O43614 1-444): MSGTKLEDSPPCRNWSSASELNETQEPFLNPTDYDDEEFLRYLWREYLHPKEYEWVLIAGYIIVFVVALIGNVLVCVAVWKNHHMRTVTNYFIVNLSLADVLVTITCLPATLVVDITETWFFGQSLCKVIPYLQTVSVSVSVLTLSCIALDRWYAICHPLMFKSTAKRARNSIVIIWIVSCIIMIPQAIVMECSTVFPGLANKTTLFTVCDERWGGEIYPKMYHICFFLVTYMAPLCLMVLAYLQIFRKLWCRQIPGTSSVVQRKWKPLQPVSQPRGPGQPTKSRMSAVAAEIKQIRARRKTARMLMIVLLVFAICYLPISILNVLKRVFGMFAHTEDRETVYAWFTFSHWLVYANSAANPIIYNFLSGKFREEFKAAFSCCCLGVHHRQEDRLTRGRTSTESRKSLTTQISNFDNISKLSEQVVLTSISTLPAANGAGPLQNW
Put plainly: Intracellular calcium measurements (FLIPR), antagonism of 10 nM orexin-A in CHO cells expressing the human orexin-2 receptor. It is filed as cell-based. Particulars: CHO cells expressing human orexin-2 receptor, agonist 10 nM orexin-A, read-out: OX2 IC50. As to the method: as §1, §2, §3, §4, §5, §6, §7, §8

For `CCN(Cc1cncc(C)n1)C(=S)CN(c1cc(N(C)C)ccc1Cl)S(=O)(=O)c1ccc(OC)c(OC)c1` [Example 14, 2-[(2-Chloro-5-dimethylamino-phenyl)-(3,4-dimethoxy-benzenesulfonyl)-amino]-N-ethyl-N-(6-methyl-pyrazin-2-ylmethyl)-thioacetamide], the IC50 (as a rule, the concentration at which inhibition is half-maximal) on human orexin-1 receptor turned out to be 15 nM; at human orexin-2 receptor it was 12 nM.
Consider `CCN(Cc1cccc(C)n1)C(=O)CN(c1cc2c(C)nsc2cc1Cl)S(=O)(=O)c1ccc(OC)c(OC)c1` [Example 21, 2-[(6-Chloro-3-methyl-benzo[d]isothiazol-5-yl)-(3,4-dimethoxy-benzenesulfonyl)-amino]-N-ethyl-N-(6-methyl-pyridin-2-ylmethyl)-acetamide], for which the half-inhibitory concentration (IC50) at human orexin-1 receptor stood at 8 nM; at human orexin-2 receptor, 7 nM.
Turning to `CCN(CC)C(=O)CN(c1ccc(Cl)cc1C#N)S(=O)(=O)c1ccc(OC)c(OC)c1` [Example 27, 2-[(4-Chloro-2-cyano-phenyl)-(3,4-dimethoxy-benzenesulfonyl)-amino]-N,N-diethyl-acetamide], the results for the IC50 at human orexin-1 receptor and on human orexin-2 receptor were 180 nM and 2 nM, respectively.
On to `COc1ccc(S(=O)(=O)N(CC(=O)N(CCO)Cc2ccccn2)c2cc(N(C)C)ccc2Cl)cc1OC` [Example 55, 2-[(2-Chloro-5-dimethylamino-phenyl)-(3,4-dimethoxy-benzenesulfonyl)-amino]-N-(2-hydroxy-ethyl)-N-pyridin-2-ylmethyl-acetamide], for which the half-inhibitory concentration (IC50) amounted to 63 nM on human orexin-1 receptor and 7 nM at human orexin-2 receptor.
For `CCN(CC)C(=O)CN(c1cc(N(C)C)ccc1C#N)S(=O)(=O)c1ccc(OC)c(OC)c1` [Example 58, 2-[(2-Cyano-5-dimethylamino-phenyl)-(3,4-dimethoxy-benzenesulfonyl)-amino]-N,N-diethyl-acetamide], the IC50 was found to be 166 nM at human orexin-1 receptor and 10 nM on human orexin-2 receptor.
